# Measurements from patent US20230272016A1, “PEPTIDES FOR IMMUNOTHERAPY” (Second Genome, Inc., priority 2020, published 2023).
# Test system: human T cells
# Assay: Human T cell activation assay (anti-CD3 plus peptide, cytokine secretion)
# Format: cell-based
# Procedure: FIGS. 11 and 12 show 150 peptide variants of the SG-3-0020 1-29 aa N-terminal+middle region, derived from a combinatorial phage display library, were tested for activation potential of human T cells. […] Increase in cytokine secretion was concordant in 3 donors.
# For example, PBMCs were obtained from individual human donors.
# T-cell activation was also determined as described previously (see above and International Application No. PCT/US2020/012431). […] Separate N-, MID, and C-terminal fragments lose activity. The data support that both N- and middle region are minimally required for binding and activation to T cells.
# [1] = Table 10, combinatorial library variants of SEQ ID NO:1
# [2] = Table 11, 150 combinatorial library variants of SEQ ID NO:1
Substance,mean_ES_IFN-γ [1],mean_ES_IFN-γ [2]
MPSGAKGKTHDHYGGGRMRPPPWHDWRFS [SEQ ID NO: 13],1.216,1.216
MGSGAKGKTHDHNWGGRHRDPGWHDWWVS [SEQ ID NO: 285],,0.7319
WTSGAKGKWHDHYGGGRYRDPGWHDWRFS [SEQ ID NO: 280],,0.7716
MASTAKGKTHDHWPGGRMRPPPWHDWRGS [SEQ ID NO: 320],,0.5063
WSSAAKTKWHDHNPGGRYRPPPWHDWRFR [SEQ ID NO: 332],,0.3258
MASTAKGKTHDHYGGGRMRPPPWHDWRVR [SEQ ID NO: 314],,0.5458
VPSAAKGKWHDHNGSGRMRDPGWHDWRFS [SEQ ID NO: 348],,−0.009349
WSSGAKTKWHDHYGSGRHRDPKWHDWRGS [SEQ ID NO: 19],1.147,1.147
MPSAAKTKWHDHNWSGRMRPPPWHDWRAR [SEQ ID NO: 270],,0.8446
MLSAAKGKTHDHYPSGRYRPPPWHDWRAR [SEQ ID NO: 269],,0.8464
SVSAAKGKTHDHYPSGRWRDPPWHDWRAS [SEQ ID NO: 300],,0.645
WASGAKGKWHDHYGSGRYRPPPWHDWRGS [SEQ ID NO: 290],,0.712
PTSAAKGKTHDHYPGGRYRDPPWHDWRAS [SEQ ID NO: 356],,−0.5055
SPSGAKGKTHDHYPSGRMRPPPWHDWRFS [SEQ ID NO: 261],,0.8871
MASGAKGKTHDHYPGGRMRPPPWHDWRAR [SEQ ID NO: 287],,0.7208
MGSAAKGKWHDHNGSGRMRPPPWHDWRAR [SEQ ID NO: 279],,0.7782
PASAAKGKWHDHNPSGRMRDPPWHDWWGS [SEQ ID NO: 327],,0.4162
WASGAKGKTHDHWPGGRHRDPPWHDWRVS [SEQ ID NO: 271],,0.8431
FPSGAKTKWHDHNPSGRMRDPPWHDWRFSa [SEQ ID NO: 273],,0.8203
MGSGAKTKWHDHWPSGRMRPPPWHDWRFS [SEQ ID NO: 284],,0.7374
MLSAAKTKTHDHWGSGRMRDPPWHDWRVS [SEQ ID NO: 351],,−0.1331

Substance,mean_ES_IFN-γ [1],mean_ES_IFN-γ [2]
MGSGAKTKTHDHYPGGRYRPPPWHDWRVS [SEQ ID NO: 276],,0.8105
WTSGAKGKWHDHNGGGRMRDPGWHDWRFS [SEQ ID NO: 309],,0.5851
WPSAAKGKTHDHYPGGRYRPPPWHDWRVR [SEQ ID NO: 295],,0.6782
PVSAAKGKWHDHNWSGRMRPPPWHDWRAR [SEQ ID NO: 18],1.169,1.169
VSSGAKTKTHDHNPSGRMRDFKWHDWRGS [SEQ ID NO: 350],,−0.1153
MPSGAKGKWHDHYGGGRMRDPGWHDWRGS [SEQ ID NO: 317],,0.5191
WGSGAKGKTHDHWGSGRWRDPGWHDWRGS [SEQ ID NO: 5],1.324,1.324
VTSAAKGKTHDHYPSGRYRPPPWHDWRGR [SEQ ID NO: 310],,0.5718
MPSAAKTKWHDHYPSGRMRPPPWHDWRGR [SEQ ID NO: 28],1.071,1.071
VTSAAKGKTHDHYPSGRMRPPPWHDWRFS [SEQ ID NO: 312],,0.5616
MSSGAKGKWHDHNWGGRMRDPGWHDWWGS [SEQ ID NO: 301],,0.6348
MSSGAKGKWHDHYPSGRMRPPPWHDWRFS [SEQ ID NO: 3],1.384,1.384
WVSAAKGKTHDHWGSGRHRDPPWHDWRAR [SEQ ID NO: 30],1.052,1.052
WSSAAKGKTHDHYGGGRMRPPPWHDWRAR [SEQ ID NO: 338],,0.2829
MLSTAKGKTHDHWGGGRMRPPPWHDWRFS [SEQ ID NO: 2],1.408,1.408
MVSTAKGKTHDHYGGGRYRPPPWHDWRAR [SEQ ID NO: 266],,0.8498
MPSAAKGKTHDHNGGGRMRPPPWHDWRFS [SEQ ID NO: 311],,0.5631
MPSAAKGKWHDHYPSGRMRPPPWHDWRAR [SEQ ID NO: 12],1.216,1.216
PSSAAKGKTHDHYPGGRYRPPPWHDWRVS [SEQ ID NO: 264],,0.8772
MVSAAKTKTHDHNGGGRMRPPPWHDWRFS [SEQ ID NO: 258],,0.9135
WLSTAKGKTHDHNWSGRYRPPPWHDWRVR [SEQ ID NO: 307],,0.6005

Substance,mean_ES_IFN-γ [1],mean_ES_IFN-γ [2]
FPSGAKTKWHDHNPSGRMRDPPWHDWRFS [SEQ ID NO: 306],,0.6024
PLSAAKTKTHDHNWSGRYRPPPWHDWRAR [SEQ ID NO: 282],,0.7514
VGSGAKGKTHDHNGSGRYRPPPWHDWRFS [SEQ ID NO: 299],,0.6497
WVSAAKGKWHDHYGSGRMRDPPWHDWWGS [SEQ ID NO: 24],1.104,1.104
WGSAAKGKTHDHNWSGRYRPPPWHDWRVS [SEQ ID NO: 302],,0.6264
VGSAAKTKTHDHYGGGRMRPPPWHDWRFS [SEQ ID NO: 331],,0.3468
WGSGAKGKTHDHNGGGRMRPPPWHDWRAS [SEQ ID NO: 334],,0.3217
VVSTAKGKTHDHYPGGRMRPPPWHDWRAR [SEQ ID NO: 251],,0.952
FASGAKGKTHDHNWGGRYRDPGWHDWRAS [SEQ ID NO: 281],,0.7548
MASAAKGKWHDHWGSGRHRPPPWHDWRVS [SEQ ID NO: 11],1.237,1.237
WGSAAKGKWHDHYPSGRMRPPPWHDWRVR [SEQ ID NO: 275],,0.8178
MVSTAKGKTHDHYGSGRYRPPPWHDWRGS [SEQ ID NO: 340],,0.276
WLSAAKAKTHDHWGSGRHRPPPWHDWRGS [SEQ ID NO: 315],,0.5302
FASAAKGKTHDHWGSGRYRPPPWHDWRGS [SEQ ID NO: 244],,0.9882
WVSAAKGKTHDHNGGGRWRDPGWHDWRFS [SEQ ID NO: 336],,0.3032
MASGAKGKTHDHNWSGRMRPPPWHDWRGR [SEQ ID NO: 245],,0.9801
MPSAAKGKWHDHYPGGRMRDPKWHDWRFS [SEQ ID NO: 8],1.282,1.282
VVSGAKGKTHDHNWGGRYRPPPWHDWRGS [SEQ ID NO: 296],,0.6729
WSSAAKGKTHDHWGGGRYRPPPWHDWRAS [SEQ ID NO: 17],1.172,1.172
